{"source": "patent US8362022B2", "about": "“Selective subtype alpha 2 adrenergic agents and methods for use thereof” (Allergan, Inc., priority 2008, dated 2013)", "format_in_all_cases": "cell-based", "key": {"Alpha 1A": {"biological_target": "T1, Alpha 1A (Homo sapiens, UniProt P35348)", "T1 sequence (P35348 1-466)": "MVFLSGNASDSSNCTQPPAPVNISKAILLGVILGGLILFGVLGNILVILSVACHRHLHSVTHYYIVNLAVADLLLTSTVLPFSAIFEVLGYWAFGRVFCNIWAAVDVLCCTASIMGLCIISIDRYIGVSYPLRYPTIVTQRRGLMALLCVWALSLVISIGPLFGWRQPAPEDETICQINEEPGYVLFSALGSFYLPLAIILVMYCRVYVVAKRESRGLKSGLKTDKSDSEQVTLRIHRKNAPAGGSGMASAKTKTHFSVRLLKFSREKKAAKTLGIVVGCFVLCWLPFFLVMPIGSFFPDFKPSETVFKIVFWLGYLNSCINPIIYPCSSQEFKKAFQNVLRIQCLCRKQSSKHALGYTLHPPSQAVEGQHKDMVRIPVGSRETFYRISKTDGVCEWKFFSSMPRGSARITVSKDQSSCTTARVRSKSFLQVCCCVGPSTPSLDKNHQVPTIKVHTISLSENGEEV", "experiment": "RSAT assay (Receptor Selection and Amplification Technology), Alpha 1A", "settings": "value in parentheses, ratio of maximal effect of drug to maximal effect of standard full agonist", "method": "(§1) The RSAT assay measures a receptor-mediated loss of contact inhibition that results in selective proliferation of receptor-containing cells in a mixed population of confluent cells. The increase in cell number is assessed with an appropriate transfected marker gene such as β-galactosidase, the activity of which can be easily measured in a 96-well format. Receptors that activate the G protein, Gq, elicit this response. Alpha 2 receptors, which normally couple to Gi, activate the RSAT response when coexpressed with a hybrid Gq protein that has a Gi receptor recognition domain, called Gq/i5.\n(§2) NIH-3T3 cells are plated at a density of 2×10^6 cells in 15 cm dishes and maintained in Dulbecco's modified Eagle's medium supplemented with 10% calf serum. One day later, cells are cotransfected by calcium phosphate precipitation with mammalian expression plasmids encoding p-SV-β-galactosidase (5-10 μg), receptor (1-2 μg) and G protein (1-2 μg). 40 μg salmon sperm DNA may also be included in the transfection mixture. […] Cells are thawed and 100 μl added to 100 μL aliquots of various concentrations of drugs in triplicate in 96-well dishes. Incubations continue 72-96 hr at 37° C. After washing with phosphate-buffered saline, β-galactosidase enzyme activity is determined by adding 200 μL of the chromogenic substrate (consisting of 3.5 mM o-nitrophenyl-β-D-galactopyranoside and 0.5% nonidet P-40 in phosphate buffered saline), incubating overnight at 30° C. and measuring optical density at 420 nm. The absorbance is a measure of enzyme activity, which depends on cell number and reflects a receptor-mediated cell proliferation. The efficacy or intrinsic activity is calculated as a ratio of the maximal effect of the drug to the maximal effect of a standard full agonist for each receptor subtype. Brimonidine, the chemical structure of which is shown below, is used as the standard agonist for the alpha 2B and alpha 2C receptors. […] NA stands for “not active” at concentrations less than 3-10 micromolar."}, "alpha 2B receptor": {"biological_target": "T2, alpha 2B receptor (Homo sapiens, UniProt P18089)", "T2 construct": "expressed in transfected cells; host or cells: NIH-3T3", "T2 sequence (P18089 1-450)": "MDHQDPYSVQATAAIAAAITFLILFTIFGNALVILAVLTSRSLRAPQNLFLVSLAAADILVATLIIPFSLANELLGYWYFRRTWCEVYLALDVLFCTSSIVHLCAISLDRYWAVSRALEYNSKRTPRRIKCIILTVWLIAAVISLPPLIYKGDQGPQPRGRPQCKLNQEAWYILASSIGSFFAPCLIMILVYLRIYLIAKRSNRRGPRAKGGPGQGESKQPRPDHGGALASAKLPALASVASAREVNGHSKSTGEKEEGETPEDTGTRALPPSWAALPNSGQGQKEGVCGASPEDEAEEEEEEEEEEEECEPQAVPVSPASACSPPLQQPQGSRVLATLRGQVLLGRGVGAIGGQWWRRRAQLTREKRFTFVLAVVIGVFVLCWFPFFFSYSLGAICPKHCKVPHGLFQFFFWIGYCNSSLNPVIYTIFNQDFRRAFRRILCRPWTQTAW", "experiment": "RSAT assay (Receptor Selection and Amplification Technology), Alpha 2B", "settings": "RSAT, Table 1", "method": "as §1, §2"}, "alpha 2C receptor": {"biological_target": "T3, alpha 2C receptor (Homo sapiens, UniProt P18825)", "T3 construct": "expressed in transfected cells; host or cells: NIH-3T3", "T3 sequence (P18825 1-462)": "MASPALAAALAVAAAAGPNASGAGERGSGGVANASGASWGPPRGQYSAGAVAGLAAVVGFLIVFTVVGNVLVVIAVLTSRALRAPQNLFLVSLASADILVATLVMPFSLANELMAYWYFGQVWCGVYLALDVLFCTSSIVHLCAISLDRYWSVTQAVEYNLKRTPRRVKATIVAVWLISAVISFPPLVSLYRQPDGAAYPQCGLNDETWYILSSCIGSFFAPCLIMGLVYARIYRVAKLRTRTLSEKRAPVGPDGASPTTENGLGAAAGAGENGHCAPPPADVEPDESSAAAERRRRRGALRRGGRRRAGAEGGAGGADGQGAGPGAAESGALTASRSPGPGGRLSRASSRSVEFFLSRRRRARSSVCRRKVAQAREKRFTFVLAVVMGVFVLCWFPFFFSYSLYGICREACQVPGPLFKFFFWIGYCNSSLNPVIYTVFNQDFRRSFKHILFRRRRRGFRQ", "experiment": "RSAT assay (Receptor Selection and Amplification Technology), Alpha 2C", "settings": "RSAT", "method": "as §1, §2"}, "[1]": {"settings": "value in parentheses, ratio of maximal effect to that of brimonidine"}}, "data": [{"smiles": "Cc1cccc(C(Cc2cccnc2)/N=C2/NCCO2)c1C", "note": "(centres unmarked) [Compound 21, 1-(2,3-Dimethylphenyl)-N-(oxazolidin-2-ylidene)-2-(pyridin-3-yl)ethanamine]", "values": [{"measurement": "Intrinsic Activity efficacy Alpha 1A", "setting": "Alpha 1A", "result": 0.6}, {"measurement": "EC50", "setting": "alpha 2B receptor; transfected NIH-3T3 cells with Gq/i5, read-out: potency nM (EC50) Alpha 2B", "result": 5, "unit": "nM"}, {"measurement": "Intrinsic Activity efficacy Alpha 2B", "setting": "alpha 2B receptor; [1]", "result": 1.2}, {"measurement": "EC50", "setting": "alpha 2C receptor; transfected NIH-3T3 cells with Gq/i5, NA = not active at concentrations less than 10 micromolar, read-out: potency nM (EC50) Alpha 2C", "result": 18, "unit": "nM"}, {"measurement": "Intrinsic Activity efficacy Alpha 2C", "setting": "alpha 2C receptor; [1]", "result": 0.4}]}]}
